Where two headings read alike, the source gives them in different places. A value given as a limit tells only on which side of the number the result lay.

The subject of test [1] is amphotropic murine leukemia virus (AMLV). The test can be described thus: microbe, parasite or virus in culture. As to conditions: specificity control. The test is classed as cell-based.
Test [2] relates to HIV-1YU-2. The experiment in a line: microbe, parasite or virus in culture. The test is classed as cell-based.
[3] abbreviates: read-out: IC50 AMLV, Table 2 screening results.
The mark [4] stands for this setting: read-out: IC50 YU-2, single round infection assay.
Setting [5] is: Murine leukemia virus, read-out: IC50 AMLV, Table 2 screening results.
Where [6] appears, read: Human immunodeficiency virus 1, read-out: IC50 YU-2, single round infection assay.

As usually defined, the IC50 is the concentration that gives 50% inhibition. Consider `Cc1ccc(C(C)C)c(OCC(=O)N2CCN(C(=O)c3ccccc3)CC2)c1` [Compound 49], for which the IC50 in test [1] (setting [3]) and in test [2] (setting [4]) was above 50 µM each time.

`O=C(C1=Cc2cc(Br)ccc2OC1)N1CCN(C(=O)c2ccccc2)CC1` [Compound 19]: the IC50 in test [1] (setting [5]) and in test [2] (setting [6]) was above 300 µM each time.

Take `O=C(CCC(=O)N1CCN(C(=O)c2ccccc2)CC1)c1ccc(Cl)s1` [Compound 2]: the IC50 in test [1] (setting [5]) and in test [2] (setting [6]) was above 300 µM each time.

As to `Cc1nn(C)c2nc(-c3cccs3)cc(C(=O)N3CCN(C(=O)c4ccccc4)CC3)c12` [Compound 38], the IC50 in test [1] (setting [5]) and in test [2] (setting [6]) was above 50 µM in each case.

Consider `O=C(c1ccccn1)N1CCN(S(=O)(=O)c2ccc3ccccc3c2)CC1` [Compound 1], for which the IC50 in test [1] (setting [5]) and in test [2] (setting [6]) was above 300 µM each time.

Take `CCOC(=O)N1CCN(C(=O)C(=O)c2c(C)[nH]c3ccccc23)CC1` [Compound 31]: the IC50 in test [1] (setting [5]) and in test [2] (setting [6]) was above 50 µM each time.

Take `COc1ccc(Cl)cc1C(=O)Cn1c(=O)oc2cc(S(=O)(=O)N3CCOCC3)ccc21` [Compound 43]: the 50% inhibitory concentration (IC50) in test [1] (setting [5]) and in test [2] (setting [6]) was above 50 µM in each case.

Regarding `O=C(CSc1nnnn1C1CCCC1)N1CCN(C(=O)c2cccs2)CC1` [Compound 30], the IC50 in test [1] (setting [5]) and in test [2] (setting [6]) was above 50 µM in each case.

For `CC(C(=O)N1CCCc2ccccc21)N1CCN(C(=O)c2ccccc2)CC1` (stereo not drawn) [Compound 25], the IC50 in test [1] (setting [5]) and in test [2] (setting [6]) was above 50 µM in each case.

Take `O=C(c1ccccn1)N1CCN(S(=O)(=O)c2ccc3c(c2)OCCO3)CC1` [Compound 3]: the IC50 in test [1] (setting [5]) and in test [2] (setting [6]) was above 300 µM throughout.

Turning to `O=C(c1ccccc1)N1CCN(C(=O)c2ccc3c(c2)CCC3)CC1` [Compound 8], the IC50 in test [1] (setting [5]) and in test [2] (setting [6]) was above 300 µM each time.

For the molecule `O=C(c1ccccc1)N1CCN(S(=O)(=O)c2ccc(Cl)c(C(F)(F)F)c2)CC1` [Compound 4], the IC50 in test [1] (setting [5]) and in test [2] (setting [6]) was above 300 µM in each case.

`COc1ccc(OC)c(/C=C/C(=O)N2CCN(C(=O)C3CC3)CC2)c1` [Compound 45]: the IC50 in test [1] (setting [5]) and in test [2] (setting [6]) was above 50 µM each time.

Turning to `CC(C)n1ncc2c(C(=O)N3CCN(C(=O)c4ccccc4)CC3)cc(-c3ccco3)nc21` [Compound 37], the IC50 in test [1] (setting [5]) and in test [2] (setting [6]) was above 50 µM each time.

For the molecule `O=C(c1ccccc1)N1CCN(S(=O)(=O)c2ccc3c(c2)CCCC3)CC1` [Compound 13], the IC50 amounted to 197 µM in test [1] (setting [5]) and 117 µM in test [2] (setting [6]).

As to `Cc1cccc(C(=O)N2CCN(S(=O)(=O)c3ccc(C)c(C)c3)CC2)c1` [Compound 10], the IC50 in test [1] (setting [5]) and in test [2] (setting [6]) was above 300 µM throughout.

With `O=C(c1ccccc1)N1CCN(C(=O)c2ccc3noc(-c4ccccc4)c3c2)CC1` [Compound 46], the concentration for half-maximal inhibition (IC50) in test [1] (setting [5]) and in test [2] (setting [6]) was above 50 µM throughout.

On to `CCN(CC)S(=O)(=O)N1CCN(C(=O)C(=O)c2c(C)[nH]c3ccccc23)CC1` [Compound 48], for which the IC50 in test [1] (setting [5]) and in test [2] (setting [6]) was above 50 µM in each case.

In the case of `COc1ccc(C(=O)N2CCN(C(=O)COc3cccc4ccccc34)CC2)cc1` [Compound 50], the IC50 in test [1] (setting [5]) and in test [2] (setting [6]) was above 50 µM each time.

In the case of `Cc1nn(-c2ccccc2)c(C)c1C(=O)C(=O)N1CCN(C(=O)c2ccccc2)CC1` [Compound 20], the concentration for half-maximal inhibition (IC50) in test [1] (setting [3]) and in test [2] (setting [4]) was above 300 µM throughout.

As to `O=C1CSc2ccc(C(=O)N3CCN(C(=O)c4cccs4)CC3)cc2N1` [Compound 7], the IC50 in test [1] (setting [5]) and in test [2] (setting [6]) was above 300 µM each time.

Turning to `Cc1cc(C)nc(SCC(=O)N2CCN(C(=O)c3ccccc3)CC2)n1` [Compound 34], the IC50 in test [1] (setting [5]) was above 50 µM; in test [2] (setting [6]) it was 19.4 µM.

With `COc1cccc(C(=O)N2CCN(C(=O)COc3cccc4ccccc34)CC2)c1` [Compound 47], the IC50 in test [1] (setting [5]) and in test [2] (setting [6]) was above 50 µM in each case.

As to `O=C(c1ccco1)N1CCN(C(O)COc2ccc(Cl)cc2[N+](=O)[O-])CC1` (stereo not drawn) [Compound 39], the IC50 in test [1] (setting [5]) and in test [2] (setting [6]) was above 50 µM in each case.

These data come from US9920073B2, “Compositions useful for inhibiting HIV-1 infection and methods using same” (Drexel University, priority 2013, dated 2018).
